According to patent US11299515B2, “Optimized peptides for targeting human nerves and their use in image guided surgery, diagnostics and therapeutic” (The Regents of the University of California, priority 2017, dated 2022):

What was measured:
[1] = Fluorescent plate reader assay of quenching by food dyes
Excerpt: FIG. 21: Food dyes efficiently quench FAM-NP41 bladder fluorescence. A fluorescent plate reader assay was used to show dose dependent quenching of FAM-NP41 fluorescence. Erythrosine extra bluish (Santa Cruz Biotechnology, Inc.) was the most efficient quencher with >80% quenching at 2.5 times dye to fluorescein ratio and >95% quenching at 5× dye to fluorescein ratio (A). Other food dyes tested included Allura Red and Sunset Yellow. To test for quenching in-vivo we administered, by direct iv injection, 50 mg/kg MW 879.76 (^˜1.5 μmoles per 25 gm mouse) to mice that had been injected with 150 nmoles of FAM-NP41 2 hours prior. This represents approximately a 10× dye to FAM-NP41 dose. Some bladder fluorescence remained after imaging so additional dye (30 μl, 10 mM Erythrosin extra bluish) was injected directly into the bladder. Images are shown for mouse bladder with no dye quencher (B) and addition of Erythrosine extra bluish (intravenous and intra bladder) (C) with bladder fluorescence quench to near background level. Dye would likely not be needed if this method was used for human patients as bladder catheterization in patients could be started as FAM-NP41 is administered so bladder fluorescence could be washed out.

human sural nerve = assay: Topical application of FAM-labelled peptides on human nerve sections; type: binding; conditions: for normalized average signal intensity (normalized to FAM-HNP401): 100 μM FAM labelled, human sural nerve sections; for binding / contrast among peptides and controls screened on human nerve: 100 μM topical, sural nerve and temporalis muscle
Excerpt: To determine the affinity of phage selected peptides for binding to human nerve they were chemically synthesized by solid-phase synthesis and labeled with fluorescein at the C-terminus via a GGC linker. Peptides were topically applied to sectioned human sural nerve and human temporalis muscle to determine nerve to muscle contrast. […] To confirm binding and contrast of HNP401 for additional nerve types binding was compared in nerve and muscle with both HNP401 and NP41 on facial brachial plexus nerve (FIG. 9). […] FAM-HNP401 was additionally tested topically on ex-vivo tissue for labeling of mouse facial nerve with surrounding muscle (FIG. 10, J-M).
To test the affinity of selected phage display peptides for binding to human nerves, they were chemically synthesized by solid-phase synthesis and labeled with fluorescein at the C-terminus. Peptides were topically applied to sections of surgically harvested human sural nerve and temporalis muscle to determine nerve to muscle contrast for selected peptides and controls (FIG. 23). […] To quantify differential binding to nerve versus muscle, fluorescence signal intensity was measured for ROIs from the perineurium of select nerves and human temporalis muscle.
Human sural nerve, antebrachial nerve and laryngeal nerve and temporalis muscle were obtained under IRB protocol number 130837 for Dr. Quyen Nguyen. Human peripheral nerves (typically sural) were obtained from patients undergoing nerve resection procedures. Human nerves from prostate gland of two patients were acquired under Moores Cancer Centre Biorepository IRB protocol number 090401. Tissue were sectioned and mounted on glass slides or Cryojane tape. Tissue sections were placed in a humidifier chamber for 30 min before application of the peptide solution. Peptides were diluted to appropriate concentration in 0.5×HBSS prior to topical application. 50 μl of peptide solution of with known concentration (1 μM to 375 μM) were applied to 10 μm nerve sections on tape or slides and incubated for 30 minutes in a humidifier chamber. After incubation with peptide nerve sections were washed with twice with 0.5×HBSS and once with 1×PBS. A cover-slip was applied and slides were imaged immediately on either a Zeiss Lumar dissecting scope of Nikon A1 confocal microscope. For confocal imaging tissue sections of 10 μm thickness were imaged with 488 nm laser excitation 515 (25) and a 10× air objective and a […] size. For immunohistochemistry the confocal Images were acquired with a 20× air objective at 0.4 μm/pixel.
Image J was used to analyze and compare images acquired using the confocal microscope and the Lumar dissecting scope. For each experimental set where probes were compared, we kept the acquisition parameters identical so as to directly compare the data obtained. […] All raw image files for a given experimental cohort were loaded at the same time into Image J as 16-bit tiff images. We then levelled the image for tissue treated with FAM-HNP401. Once these levels were set, the settings are propagated to all images in one step using Image J. The brightest image is set as the benchmark for all other images in the cohort to avoid saturating when the leveling is propagated.

[2] = tested on: autonomic nerves within the prostate; assay: In-vivo imaging of autonomic nerves within the prostate of mice; conditions: rodent models
Protocol: To visualize the autonomic nerves within the prostate of mice, NP41 peptide conjugated to fluorescein (FAM-NP41) was injected intravenously followed by imaging of prostate and surrounding tissue after surgical resection. Strong fluorescence from dye that rapidly accumulates in the bladder hindered visualization of the nerves within the prostate. To enhance visualization the bladder was surgically drained of urine and sutured prior to imaging. The urethra, an anatomically distinct structure, is never emptied of urine as the mice are alive for the duration of the experiment, resulting in a continuous passage of urine carrying metabolized peptide-dye to the bladder […]. […] To quantify nerve detection a total of 10 mice were injected with 600 nmoles FAM-NP41 and signal intensity was measured for nerve versus adjacent non-nerve tissue using both fluorescence and white light reflectance. Values to the right of the line indicate that there is improved visualization with fluorescence compared to reflected light. […]
Following anesthesia with intra-peritoneal injection of ketamine (80 mg/kg) and midazolam (40 mg/kg), FAM-NP41 or its variants were administered into mice retro-orbitally. […] The autonomic nerve along the cavernosal vessel in the prostate was imaged and recorded using a custom-made surgical imaging system. […]

sciatic nerve [3] = type: in vivo, mice
Protocol: Either 150 or 450 nmoles of fluorescein labeled synthetic peptides were injected intravenously into mice. After a 2 hour waiting period for washout of nonspecific binding, mice were anesthetized and skin incisions were made over the dorsal surface of the hind legs to expose the sciatic nerve. Brightfield and fluorescent images were obtained with a dissecting microscope using Metamorph software (FIG. 1). Quantitation of fluorescence of nerves and adjacent non-nerve tissue was performed with Image J (FIG. 2). Peptides were also topically applied to human nerve sections. Nerves were freshly frozen in OTC prior to sectioning. Peptides were topically applied at concentration at 300 uM with images being shown for HNP401, HNP402, HNP404 and previous reported nerve binding peptides NP41 (FIG. 3)). Also shown are images for variants HNP301 ([…]) and NP124. NP713 was also tested and has not reported in a publication. NP713, is a derivative of NP41 with sequence […] that was enriched after 7 rounds of selection against mouse tissue, and was also found after 4 rounds of selection against human tissue. […] All D-amino acid controls for NP-41 and NP713 and non peptide conjugated carboxyfluorescein, are also shown. […] HNP401 was then tested for labeling of rat sciatic and rat prostate cavernosal nerve in-vivo. […] FIGS. 6 and 7 show in-vivo labeling of rat prostate cavernosal nerve with comparison to white light visualization.
Following anesthesia with intra-peritoneal injection of ketamine (80 mg/kg) and midazolam (40 mg/kg), FAM-NP41 or its variants were administered into mice retro-orbitally. After a washout period of 2-4 hours, the animals were anesthetized with ketamine (50 mg/ml) and xylazine (20 mg/ml). The bladder and prostate were exposed through a midline abdominal incision. The autonomic nerve along the cavernosal vessel in the prostate was imaged and recorded using a custom-made surgical imaging system. This system is a modified from Olympus MVX10 scope capable of hi-resolution fluorescence, RGB reflectance and realtime overlay with zoom from 0.6 to 5.7 cm field of view. Image) was used for quantitative analysis of nerve contrast for each peptide dye conjugate tested. Images of autonomic nerve in prostate were selected from the recorded files and magnified 300-400% prior to selection of ROI and measurement. Nerves and adjacent non-nerve tissues ROIs were hand-selected using polygonal selection tool at the same location from both of reflectance and fluorescence images. The mean and standard deviation of the pixel intensities within the selected areas were compared for nerves (mean=In, SD=σn) and adjacent background tissue (mean=Ib, SD=σb). Nerve to non-nerve contrast was calculated after background subtraction with formula |In−Ib|/(σn^2+σm^2)^0.5. For imaging the nerves in the prostate gland of male rats peptide dye conjugate were injected retro-orbitally. FAM-HNP401 was injected at a concentration of 13 mgs/kg followed by imaging after 15 minutes or alternatively a dose of 52 mgs/kg was used with imaging after 3 hours. Live animal surgery was performed under a ketamine-xylazine cocktail according to IACUC protocol. Sterile technique was used to expose the prostate; bladder was drained with a small syringe and sutured. The surgical field was washed with sterile saline prior to imaging. Mann-Whitney test was used to analyze data for both mice and rats to compare nerve intensity and nerve to non-nerve contrast between white light reflectance and fluorescence.

sciatic nerve [4] = conditions: live mice, reference [22]; cited from earlier work
[5] = tested on: autonomic nerve within the prostate; assay: In-vivo imaging of autonomic nerve within the prostate of rats; conditions: rat prostate cavernosal nerve, live rats

In the case of `O.O=C([O-])c1ccccc1-c1c2cc(I)c(=O)c(I)c-2oc2c(I)c([O-])c(I)cc12.[Na+].[Na+]` [Erythrosine extra bluish], the “quenching of FAM-NP41 fluorescence” value ([1]; 2.5 times dye to fluorescein ratio) is reported as greater than 80% and the “quenching of FAM-NP41 fluorescence” value ([1]; 5× dye to fluorescein ratio) is reported as greater than 95%.
With “EEPYYVVKKSS [HNP401-N-6, tested FAM labelled]” the “normalized average signal intensity (normalized to FAM-HNP401)” value (“normalized average signal intensity” below) (human sural nerve) was 1.0±0.34.
With NTQTLAKAPEHT [NP41, reference compound] the “average increase in nerve to non-nerve signal, fluorescence vs white light reflectance” value [2] was 17%, the “contrast (nerve fluorescent intensity/muscle fluorescent intensity)” value (sciatic nerve [3]; 450 nmols, FAM-labelled peptide, living wild type mice, FIG. 2) was 6.7 fold and the washout from nerve (sciatic nerve [3]; mouse, in vivo) was “little remaining signal after 24 hours”. The “time to almost complete wash out after systemic injection” value (sciatic nerve [4]) was no more than 24 h.
For “PWEEPYYVVKKSS [HNP401-N-4, tested FAM labelled]”, the “normalized average signal intensity” value (human sural nerve) was 0.56±0.18.
For “PYYVVKKSS [HNP401-N-8, tested FAM labelled]”, the “normalized average signal intensity” value (human sural nerve) was 0.98±0.31.
In the case of “QVPWEEPYYVVKKSS [HNP401-N-2, tested FAM labelled]”, the “average signal intensity (nerve binding of deletion variants)” value (human sural nerve; 100 uM FAM labelled, human nerve sections, n=5) is reported as 1498.73 (+/−517.63), the “normalized average signal intensity” value (human sural nerve) is reported as 2.02±0.65 and the “Normalized nerve to temporalis muscle contrast, increase with respect to FAM-HNP401” value (human sural nerve; human sural nerve vs temporalis muscle) is reported as 3 fold.
With SGQVPWEEPYYVVKK [tested FAM labelled] the “effect of terminal deletion on binding” value (human sural nerve; removal of C-terminal serine) was “tolerated”.
In the case of SHSSEFPRSWDMETN [HNP301], the “contrast for prostate nerve labeling compared to HNP401” value [5] is reported as “not showing as much contrast”.
With carboxyfluorescein [reference compound] the “binding / contrast among peptides and controls screened on human nerve” value (human sural nerve) was “only weak non-specific binding” and the “binding / contrast among peptides and controls screened on human nerve” value (human sural nerve; listed as Carboxyfluorescein) was “low signal and non-specific binding”.
